# Assay: Stability of cannabinoid and Vitamin E components of Beverage 1 (AB White) stored at 8° C. and 21-25° C., LCMSMS over 570 days
# Assay type: physicochemical
# Details: for Stability in AB White, 8° C. (content by LCMSMS): beverage stored at 8° C.; for Stability in AB White, 21-25° C. (content by LCMSMS): beverage stored at 21-25° C.
# Method: The LCMSMS was calibrated for 0-1000 ng/ml cannabinoids with the same resin material used in the preparation of the concentrates. At each time period, 100 ml of beverage was diluted with 10 ml of methanol and injected into the LCMSMS for analysis.
smiles,measurement,setting,value
"CCCCCc1cc(O)c(C/C=C(\C)CCC=C(C)C)c(O)c1 [CBG, cannabigerol]","Stability in AB White, 8° C. (content by LCMSMS)",day 0,4.87 µg/mL
same,"Stability in AB White, 8° C. (content by LCMSMS)",day 1,4.74 µg/mL
same,"Stability in AB White, 8° C. (content by LCMSMS)",day 2,4.91 µg/mL
same,"Stability in AB White, 8° C. (content by LCMSMS)",day 3,4.74 µg/mL
same,"Stability in AB White, 8° C. (content by LCMSMS)",day 5,4.88 µg/mL
same,"Stability in AB White, 8° C. (content by LCMSMS)",day 8,4.86 µg/mL
same,"Stability in AB White, 8° C. (content by LCMSMS)",day 9,4.89 µg/mL
same,"Stability in AB White, 8° C. (content by LCMSMS)",day 10,4.77 µg/mL
same,"Stability in AB White, 8° C. (content by LCMSMS)",day 11,4.87 µg/mL
same,"Stability in AB White, 8° C. (content by LCMSMS)",day 12,4.87 µg/mL
same,"Stability in AB White, 8° C. (content by LCMSMS)",day 15,4.81 µg/mL
same,"Stability in AB White, 8° C. (content by LCMSMS)",day 16,4.84 µg/mL
same,"Stability in AB White, 8° C. (content by LCMSMS)",day 17,4.78 µg/mL
same,"Stability in AB White, 8° C. (content by LCMSMS)",day 18,4.81 µg/mL
same,"Stability in AB White, 8° C. (content by LCMSMS)",day 19,4.83 µg/mL
same,"Stability in AB White, 8° C. (content by LCMSMS)",day 22,4.75 µg/mL
same,"Stability in AB White, 8° C. (content by LCMSMS)",day 23,4.89 µg/mL
same,"Stability in AB White, 8° C. (content by LCMSMS)",day 24,4.83 µg/mL
same,"Stability in AB White, 8° C. (content by LCMSMS)",day 25,4.89 µg/mL
same,"Stability in AB White, 8° C. (content by LCMSMS)",day 26,4.77 µg/mL
same,"Stability in AB White, 8° C. (content by LCMSMS)",day 29,4.91 µg/mL
same,"Stability in AB White, 8° C. (content by LCMSMS)",day 30,4.79 µg/mL
same,"Stability in AB White, 8° C. (content by LCMSMS)",day 60,4.68 µg/mL
same,"Stability in AB White, 8° C. (content by LCMSMS)",day 90,4.66 µg/mL
same,"Stability in AB White, 8° C. (content by LCMSMS)",day 120,4.89 µg/mL
same,"Stability in AB White, 8° C. (content by LCMSMS)",day 150,4.83 µg/mL
same,"Stability in AB White, 8° C. (content by LCMSMS)",day 180,4.71 µg/mL
same,"Stability in AB White, 8° C. (content by LCMSMS)",day 210,4.73 µg/mL
same,"Stability in AB White, 8° C. (content by LCMSMS)",day 240,4.69 µg/mL
same,"Stability in AB White, 8° C. (content by LCMSMS)",day 270,4.72 µg/mL
same,"Stability in AB White, 8° C. (content by LCMSMS)",day 300,4.74 µg/mL
same,"Stability in AB White, 8° C. (content by LCMSMS)",day 330,4.69 µg/mL
same,"Stability in AB White, 8° C. (content by LCMSMS)",day 360,4.66 µg/mL
same,"Stability in AB White, 8° C. (content by LCMSMS)",day 390,4.68 µg/mL
same,"Stability in AB White, 8° C. (content by LCMSMS)",day 420,4.66 µg/mL
same,"Stability in AB White, 8° C. (content by LCMSMS)",day 450,4.68 µg/mL
same,"Stability in AB White, 8° C. (content by LCMSMS)",day 480,4.64 µg/mL
same,"Stability in AB White, 8° C. (content by LCMSMS)",day 510,4.49 µg/mL
same,"Stability in AB White, 8° C. (content by LCMSMS)",day 540,4.53 µg/mL
same,"Stability in AB White, 8° C. (content by LCMSMS)",day 570,4.46 µg/mL
same,"Stability in AB White, 21-25° C. (content by LCMSMS)",day 0,4.87 µg/mL
same,"Stability in AB White, 21-25° C. (content by LCMSMS)",day 1,4.73 µg/mL
same,"Stability in AB White, 21-25° C. (content by LCMSMS)",day 2,4.72 µg/mL
same,"Stability in AB White, 21-25° C. (content by LCMSMS)",day 3,4.75 µg/mL
same,"Stability in AB White, 21-25° C. (content by LCMSMS)",day 5,4.89 µg/mL
same,"Stability in AB White, 21-25° C. (content by LCMSMS)",day 8,4.90 µg/mL
same,"Stability in AB White, 21-25° C. (content by LCMSMS)",day 9,4.79 µg/mL
same,"Stability in AB White, 21-25° C. (content by LCMSMS)",day 10,4.68 µg/mL
same,"Stability in AB White, 21-25° C. (content by LCMSMS)",day 11,4.74 µg/mL
same,"Stability in AB White, 21-25° C. (content by LCMSMS)",day 12,4.88 µg/mL
same,"Stability in AB White, 21-25° C. (content by LCMSMS)",day 15,4.87 µg/mL
same,"Stability in AB White, 21-25° C. (content by LCMSMS)",day 16,4.80 µg/mL
same,"Stability in AB White, 21-25° C. (content by LCMSMS)",day 17,4.80 µg/mL
same,"Stability in AB White, 21-25° C. (content by LCMSMS)",day 18,4.72 µg/mL
same,"Stability in AB White, 21-25° C. (content by LCMSMS)",day 19,4.68 µg/mL
same,"Stability in AB White, 21-25° C. (content by LCMSMS)",day 22,4.68 µg/mL
same,"Stability in AB White, 21-25° C. (content by LCMSMS)",day 23,4.85 µg/mL
same,"Stability in AB White, 21-25° C. (content by LCMSMS)",day 24,4.80 µg/mL
same,"Stability in AB White, 21-25° C. (content by LCMSMS)",day 25,4.86 µg/mL
same,"Stability in AB White, 21-25° C. (content by LCMSMS)",day 26,4.78 µg/mL
same,"Stability in AB White, 21-25° C. (content by LCMSMS)",day 29,4.76 µg/mL
same,"Stability in AB White, 21-25° C. (content by LCMSMS)",day 30,4.73 µg/mL
same,"Stability in AB White, 21-25° C. (content by LCMSMS)",day 60,4.83 µg/mL
same,"Stability in AB White, 21-25° C. (content by LCMSMS)",day 90,4.65 µg/mL
same,"Stability in AB White, 21-25° C. (content by LCMSMS)",day 120,4.59 µg/mL
same,"Stability in AB White, 21-25° C. (content by LCMSMS)",day 150,4.63 µg/mL
same,"Stability in AB White, 21-25° C. (content by LCMSMS)",day 180,4.79 µg/mL
same,"Stability in AB White, 21-25° C. (content by LCMSMS)",day 210,4.75 µg/mL
same,"Stability in AB White, 21-25° C. (content by LCMSMS)",day 240,4.79 µg/mL
same,"Stability in AB White, 21-25° C. (content by LCMSMS)",day 270,4.62 µg/mL
same,"Stability in AB White, 21-25° C. (content by LCMSMS)",day 300,4.67 µg/mL
same,"Stability in AB White, 21-25° C. (content by LCMSMS)",day 330,4.71 µg/mL
same,"Stability in AB White, 21-25° C. (content by LCMSMS)",day 360,4.69 µg/mL
same,"Stability in AB White, 21-25° C. (content by LCMSMS)",day 390,4.70 µg/mL
same,"Stability in AB White, 21-25° C. (content by LCMSMS)",day 420,4.72 µg/mL
same,"Stability in AB White, 21-25° C. (content by LCMSMS)",day 450,4.73 µg/mL
same,"Stability in AB White, 21-25° C. (content by LCMSMS)",day 480,4.46 µg/mL
same,"Stability in AB White, 21-25° C. (content by LCMSMS)",day 510,4.51 µg/mL
same,"Stability in AB White, 21-25° C. (content by LCMSMS)",day 540,4.48 µg/mL
same,"Stability in AB White, 21-25° C. (content by LCMSMS)",day 570,4.47 µg/mL

# Reference: patent US20240415914A1, “Water Dispersible Cannabinoid Compositions” (priority 2021, published 2024)
